Measurements reported in patent US20260028365A1 (BIOGEN MA INC., priority 2022, published 2026).
Like-named read-outs stand apart in the source and are kept apart here.

Columns and labels:
JH2 domain of human Tyk2 = JH2 domain of human Tyk2 (Homo sapiens (Human), UniProt P29597); assay: JH2 Biochemical Assay (TR-FRET probe displacement); type: binding
Tyk2 = Tyk2 (Homo sapiens (Human), UniProt P29597); assay: pSTAT4 Cell Assay (MSD, NK92 cells); type: cell-based
[1] = TR-FRET probe displacement, JH2 domain
[2] = JH2 domain of human Tyk2, TR-FRET probe displacement
[3] = TR-FRET probe displacement, JH2 domain of human Tyk2

Chain of Tyk2 (P29597 whole entry, the tested form may be a part): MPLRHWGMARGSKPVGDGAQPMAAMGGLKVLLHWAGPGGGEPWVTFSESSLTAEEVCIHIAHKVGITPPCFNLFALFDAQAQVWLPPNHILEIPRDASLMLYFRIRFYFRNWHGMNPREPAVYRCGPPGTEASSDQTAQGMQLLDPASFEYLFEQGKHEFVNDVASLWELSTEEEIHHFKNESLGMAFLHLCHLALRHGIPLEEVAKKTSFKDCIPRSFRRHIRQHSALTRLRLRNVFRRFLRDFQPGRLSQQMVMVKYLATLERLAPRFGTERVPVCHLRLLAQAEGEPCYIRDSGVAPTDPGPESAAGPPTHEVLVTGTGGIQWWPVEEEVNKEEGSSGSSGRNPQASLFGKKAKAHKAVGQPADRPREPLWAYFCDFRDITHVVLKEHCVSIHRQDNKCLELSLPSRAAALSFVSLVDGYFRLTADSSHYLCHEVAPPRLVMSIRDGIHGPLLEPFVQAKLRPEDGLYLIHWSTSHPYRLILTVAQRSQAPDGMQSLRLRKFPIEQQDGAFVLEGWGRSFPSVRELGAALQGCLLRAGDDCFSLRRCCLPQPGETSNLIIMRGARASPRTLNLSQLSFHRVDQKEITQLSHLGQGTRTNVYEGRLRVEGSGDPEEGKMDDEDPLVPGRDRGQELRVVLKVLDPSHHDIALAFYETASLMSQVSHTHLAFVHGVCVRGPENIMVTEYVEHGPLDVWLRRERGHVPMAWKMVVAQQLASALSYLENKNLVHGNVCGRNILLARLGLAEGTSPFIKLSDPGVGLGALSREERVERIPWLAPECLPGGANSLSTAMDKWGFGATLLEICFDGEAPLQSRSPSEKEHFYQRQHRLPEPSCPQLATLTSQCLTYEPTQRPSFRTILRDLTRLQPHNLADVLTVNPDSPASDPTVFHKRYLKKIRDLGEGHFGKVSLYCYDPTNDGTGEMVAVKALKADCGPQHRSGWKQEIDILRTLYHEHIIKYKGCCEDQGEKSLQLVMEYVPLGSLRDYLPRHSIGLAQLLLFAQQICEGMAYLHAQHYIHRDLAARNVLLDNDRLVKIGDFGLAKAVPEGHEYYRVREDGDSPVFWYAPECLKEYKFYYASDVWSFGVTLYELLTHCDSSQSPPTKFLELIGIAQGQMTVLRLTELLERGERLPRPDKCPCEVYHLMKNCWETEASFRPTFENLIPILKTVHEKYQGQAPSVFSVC
Chain of JH2 domain of human Tyk2 (P29597 575-876): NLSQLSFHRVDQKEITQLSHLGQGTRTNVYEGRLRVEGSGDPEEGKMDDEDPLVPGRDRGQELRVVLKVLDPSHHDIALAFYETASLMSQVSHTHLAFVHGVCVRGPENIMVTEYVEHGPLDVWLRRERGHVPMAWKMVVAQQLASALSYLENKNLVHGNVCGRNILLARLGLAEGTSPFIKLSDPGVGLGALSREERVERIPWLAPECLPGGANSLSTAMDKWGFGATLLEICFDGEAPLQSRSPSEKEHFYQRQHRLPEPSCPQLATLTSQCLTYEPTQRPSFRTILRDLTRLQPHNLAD

| Structure (SMILES) | IC50 (JH2 domain of human Tyk2; [1]) [µM] | IC50 (Tyk2) [µM] | IC50 (JH2 domain of human Tyk2; [2]) [µM] | IC50 (Tyk2; MSD) [µM] | IC50 (JH2 domain of human Tyk2; [3]) [µM] |
| --- | --- | --- | --- | --- | --- |
| COCc1cnc(-c2cnc(NC(C)=O)cc2Nc2ccnc(C(C)(F)F)n2)s1 [Example 781, N-(4-((2-(1,1-difluoroethyl)pyrimidin-4-yl)amino)-5-(5-(methoxymethyl)thiazol-2-yl)pyridin-2-yl)acetamide] | ≤ 0.01 | ≤ 0.01 |  |  |  |
| CC(=O)Nc1cc(Nc2cc(C)nc(C(C)(F)F)n2)c(-c2cccc(C#N)n2)cn1 [Example 630, N-(6-cyanO4′-((2-(1,1-difluoroethyl)-6-methylpyrimidin-4-yl)amino)-[2,3′-bipyridin]-6′-yl)acetamide] |  |  | ≤ 0.01 | ≤ 0.01 |  |
| COCc1ccc(-c2cnc(NC(C)=O)cc2Nc2ccnc(C3CCOC3)n2)nc1 (stereo not drawn) [Example 567, N-(5-(methoxymethyl)-4′-((2-(tetrahydrofuran-3-yl)pyrimidin-4-yl)amino)-[2,3′-bipyridin]-6′-yl)acetamide] |  |  | ≤ 0.01 | 0.01 to 0.1 |  |
| COCCN(C)Cc1ccc(-c2cnc(NC(C)=O)cc2Nc2ccnc(C(C)(F)F)n2)nc1 [Example 879, N-(4′-((2-(1,1-difluoroethyl)pyrimidin-4-yl)amino)-5-(((2-methoxyethyl)(methyl)amino)methyl)-[2,3′-bipyridin]-6′-yl)acetamide] | ≤ 0.01 | ≤ 0.01 |  |  |  |
| CC(=O)Nc1cc(Nc2cc(C)nc(C(C)(F)F)n2)c(OCC2CN(C(C)C)CCO2)cn1 (stereo not drawn) [Example 503, N-(4-((2-(1,1-difluoroethyl)-6-methylpyrimidin-4-yl)amino)-5-((4-isopropylmorpholin-2-yl)methoxy)pyridin-2-yl)acetamide] |  |  | ≤ 0.01 | 0.01 to 0.1 |  |
| COc1cnc(-c2cnc(NC(C)=O)cc2Nc2cc(C)nc(C(C)(F)F)n2)cn1 [Example 815, N-(4-((2-(1,1-difluoroethyl)-6-methylpyrimidin-4-yl)amino)-5-(5-methoxypyrazin-2-yl)pyridin-2-yl)acetamide] | ≤ 0.01 | ≥ 1 |  |  |  |
| COC(C)COc1cnc(NC(C)=O)cc1Nc1cc(C)nc(C(C)(F)F)n1 (stereo not drawn) [Example 60, N-(4-((2-(1,1-difluoroethyl)-6-methylpyrimidin-4-yl)amino)-5-(2-methoxypropoxy)pyridin-2-yl)acetamide] |  |  |  | 0.01 to 0.1 | ≤ 0.01 |
| CC(=O)Nc1cc(Nc2ccnc(C(C)(F)F)n2)c(-c2cc3n(n2)CCN(CC#N)C3)cn1 [Example 736, N-(5-(5-(cyanomethyl)-4,5,6,7-tetrahydropyrazolo[1,5-a]pyrazin-2-yl)-4-((2-(1,1-difluoroethyl)pyrimidin-4-yl)amino)pyridin-2-yl)acetamide] |  |  | ≤ 0.01 | ≤ 0.01 |  |
| COc1ccnc(Nc2cc(NC(C)=O)ncc2-c2ccn(C)n2)n1 [Example 553, N-(4-((4-methoxypyrimidin-2-yl)amino)-5-(1-methyl-1H-pyrazol-3-yl)pyridin-2-yl)acetamide] |  |  | 0.01 to 0.1 | 0.1 to 1 |  |
| CC(=O)Nc1cc(Nc2cc(C)nc(C(C)(F)F)n2)c(-c2ccn(CC3CC3)n2)cn1 [Example 614, N-(5-(1-(cyclopropylmethyl)-1H-pyrazol-3-yl)-4-((2-(1,1-difluoroethyl)-6-methylpyrimidin-4-yl)amino)pyridin-2-yl)acetamide] |  |  | ≤ 0.01 | ≤ 0.01 |  |
| CC(=O)Nc1cc(Nc2ccnc(C(C)(F)F)n2)c(-c2ccc(CN3C[C@H]4C[C@@H]3CO4)cn2)cn1 [Example 886, N-(5-(((1R,4R)-2-oxa-5-azabicyclo[2.2.1]heptan-5-yl)methyl)-4′-((2-(1,1-difluoroethyl)pyrimidin-4-yl)amino)-[2,3′-bipyridin]-6′-yl)acetamide] | ≤ 0.01 | ≤ 0.01 |  |  |  |
| CC(=O)Nc1cc(Nc2cc(C)nc(C(C)(F)F)n2)c(OC[C@@H]2CCC[C@H](C)O2)cn1 (stereo in doubt) [Example 442, Cis-rac-N-(4-((2-(1,1-difluoroethyl)-6-methylpyrimidin-4-yl)amino)-5-((6-methyltetrahydro-2H-pyran-2-yl)methoxy)pyridin-2-yl)acetamide] |  |  | 0.01 to 0.1 | 0.01 to 0.1 |  |
| COCCOc1cnc(NC(C)=O)cc1Nc1nc(C)cc(C(F)CF)n1 (stereo not drawn) [Example 80, N-(4-((4-(1,2-difluoroethyl)-6-methylpyrimidin-2-yl)amino)-5-(2-methoxyethoxy)pyridin-2-yl)acetamide] |  |  |  | 0.1 to 1 | 0.01 to 0.1 |
| CCc1cc(Nc2cc(NC(C)=O)ncc2-c2cnccn2)nc(C(C)(F)F)n1 [Example 823, N-(4-((2-(1,1-difluoroethyl)-6-ethylpyrimidin-4-yl)amino)-5-(pyrazin-2-yl)pyridin-2-yl)acetamide] | ≤ 0.01 | 0.01 to 0.1 |  |  |  |
| CCc1cc(Nc2cc(NC(C)=O)ncc2-c2ncn(C)n2)nc(C(C)(F)F)n1 [Example 166, N-(4-((2-(1,1-difluoroethyl)-6-ethylpyrimidin-4-yl)amino)-5-(1-methyl-1H-1,2,4-triazol-3-yl)pyridin-2-yl)acetamide] |  |  |  | 0.01 to 0.1 | ≤ 0.01 |
| COCc1ncc(-c2cnc(NC(C)=O)cc2Nc2cc(C)nc(C(C)(F)F)n2)s1 [Example 232, N-(4-((2-(1,1-difluoroethyl)-6-methylpyrimidin-4-yl)amino)-5-(2-(methoxymethyl)thiazol-5-yl)pyridin-2-yl)acetamide] |  |  |  | ≤ 0.01 | ≤ 0.01 |
| COCCn1cc(-c2cc(Nc3cc(NC(C)=O)ncc3OC)nc(C(C)(F)F)n2)cn1 [Example 386, N-(4-((2-(1,1-difluoroethyl)-6-(1-(2-methoxyethyl)-1H-pyrazol-4-yl)pyrimidin-4-yl)amino)-5-methoxypyridin-2-yl)acetamide] |  |  | ≤ 0.01 | 0.01 to 0.1 |  |
| COCc1ccc(-c2cnc(NC(C)=O)cc2Nc2cc(COC)nc(C3CCOC3)n2)nc1 (stereo not drawn) [Example 570, N-(5-(methoxymethyl)-4′-((6-(methoxymethyl)-2-(tetrahydrofuran-3-yl)pyrimidin-4-yl)amino)-[2,3′-bipyridin]-6′-yl)acetamide] |  |  | ≤ 0.01 | 0.01 to 0.1 |  |
| CCc1cc(-c2cnc(NC(C)=O)cc2Nc2cc(C)nc(C(C)(F)F)n2)ncn1 [Example 244, N-(4-((2-(1,1-difluoroethyl)-6-methylpyrimidin-4-yl)amino)-5-(6-ethylpyrimidin-4-yl)pyridin-2-yl)acetamide] |  |  |  | 0.01 to 0.1 | ≤ 0.01 |
| CCc1cc(Nc2cc(NC(C)=O)ncc2-c2nnc(C)o2)nc(C(C)(F)F)n1 [Example 168, N-(4-((2-(1,1-difluoroethyl)-6-ethylpyrimidin-4-yl)amino)-5-(5-methyl-1,3,4-oxadiazol-2-yl)pyridin-2-yl)acetamide] |  |  |  | 0.01 to 0.1 | ≤ 0.01 |
| CC(=O)Nc1cc(Nc2cc(C)nc(C(C)(F)F)n2)c(-c2ncc(CN3CCN(C)CC3)s2)cn1 [Example 783, N-(4-((2-(1,1-difluoroethyl)-6-methylpyrimidin-4-yl)amino)-5-(5-((4-methylpiperazin-1-yl)methyl)thiazol-2-yl)pyridin-2-yl)acetamide] | ≤ 0.01 | ≤ 0.01 |  |  |  |
| COC1CC(COc2cnc(NC(C)=O)cc2Nc2cc(C)nc(C(C)(F)F)n2)C1 (stereo not drawn) [Example 40, N-(4-((2-(1,1-difluoroethyl)-6-methylpyrimidin-4-yl)amino)-5-((3-methoxycyclobutyl)methoxy)pyridin-2-yl)acetamide] |  |  |  | 0.01 to 0.1 | ≤ 0.01 |
| CC(=O)Nc1cc(Nc2cc(C)nc(C(C)(F)F)n2)c(OCc2cnc(C)o2)cn1 [Example 320, N-(4-((2-(1,1-difluoroethyl)-6-methylpyrimidin-4-yl)amino)-5-((2-methyloxazol-5-yl)methoxy)pyridin-2-yl)acetamide] |  |  |  | 0.01 to 0.1 | ≤ 0.01 |
| CC(=O)Nc1cc(Nc2ccnc(C(C)(F)F)n2)c(-c2ccc(CN3CCCC3)cn2)cn1 [Example 878, N-(4′-((2-(1,1-difluoroethyl)pyrimidin-4-yl)amino)-5-(pyrrolidin-1-ylmethyl)-[2,3′-bipyridin]-6′-yl)acetamide] | ≤ 0.01 | ≤ 0.01 |  |  |  |
| CC(=O)Nc1cc(Nc2cccc(C(C)(F)F)n2)c(-c2ccn(C)n2)cn1 [Example 147, N-(4-((6-(1,1-difluoroethyl)pyridin-2-yl)amino)-5-(1-methyl-1H-pyrazol-3-yl)pyridin-2-yl)acetamide] |  |  |  | ≤ 0.01 | ≤ 0.01 |
| CCOCCn1ccc(-c2cnc(NC(C)=O)cc2Nc2cc(C)nc(C(C)(F)F)n2)n1 [Example 229, N-(4-((2-(1,1-difluoroethyl)-6-methylpyrimidin-4-yl)amino)-5-(1-(2-ethoxyethyl)-1H-pyrazol-3-yl)pyridin-2-yl)acetamide] |  |  |  | ≤ 0.01 | ≤ 0.01 |
| CC(=O)Nc1cc(Nc2ccnc(C(C)(F)F)n2)c(-c2cnc(N(C)C)cn2)cn1 [Example 842, N-(4-((2-(1,1-difluoroethyl)pyrimidin-4-yl)amino)-5-(5-(dimethylamino)pyrazin-2-yl)pyridin-2-yl)acetamide] | ≤ 0.01 | 0.01 to 0.1 |  |  |  |
| COc1ccc(-c2cnc(NC(C)=O)cc2Nc2cc(C)nc(C(C)(F)F)n2)nc1 [Example 599, N-(4′-((2-(1,1-difluoroethyl)-6-methylpyrimidin-4-yl)amino)-5-methoxy-[2,3′-bipyridin]-6′-yl)acetamide] |  |  | ≤ 0.01 | ≤ 0.01 |  |
| COc1ccc(-c2cnc(NC(C)=O)cc2Nc2cc(C)nc(C34COC(C3)C4)n2)nn1 [Example 749, N-(4-((2-(2-oxabicyclo[2.1.1]hexan-4-yl)-6-methylpyrimidin-4-yl)amino)-5-(6-methoxypyridazin-3-yl)pyridin-2-yl)acetamide] | ≤ 0.01 | 0.01 to 0.1 |  |  |  |
| CCOc1cnc(NC(C)=O)cc1Nc1cc(-c2cnn(CCOC)c2)nc(C(C)(F)F)n1 [Example 310, N-(4-((2-(1,1-difluoroethyl)-6-(1-(2-methoxyethyl)-1H-pyrazol-4-yl)pyrimidin-4-yl)amino)-5-ethoxypyridin-2-yl)acetamide] |  |  |  | 0.01 to 0.1 | ≤ 0.01 |
